In patent US8471005B2 (Cephalon, Inc., priority 2008, dated 2013):

What was measured:
[1] = target: T1, ALK (Homo sapiens, UniProt Q9UM73); assay: ALK Kinase Assay (ELISA/TRF, PLC-γ substrate); type: biochemical; details: ALK Kinase Inhibition; read-out: ALK Potency
T1 construct: host or cells: baculovirus expression system
In short: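 IC50 values derive from percent inhibition plotted against log10 compound concentration and fitted to a variable-slope sigmoidal equation. The underlying reaction used 30 ng/ml ALK acting on immobilized PLC-γ (10 μg/mL in TBS) at 37° C for 15 minutes, read with Eu-N1 PT66 antibody.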

[2] = target: T2, JAK2 (Homo sapiens, UniProt O60674); assay: Recombinant Human JAK2 Kinase Assay (TRF); type: biochemical; details: JAK2 Kinase Inhibition; read-out: JAK2 Potency
T2 construct: host or cells: baculovirus expression system
In short: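 Kinase activity of baculovirus-expressed JAK2 is followed on a surface-immobilised biotinylated peptide, with the reaction run for 20 min at room temperature in buffer containing 0.2 μM ATP and manganese. Phosphorylation is read with Eu-N1 PY100 antibody.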

T2 sequence (O60674 whole entry): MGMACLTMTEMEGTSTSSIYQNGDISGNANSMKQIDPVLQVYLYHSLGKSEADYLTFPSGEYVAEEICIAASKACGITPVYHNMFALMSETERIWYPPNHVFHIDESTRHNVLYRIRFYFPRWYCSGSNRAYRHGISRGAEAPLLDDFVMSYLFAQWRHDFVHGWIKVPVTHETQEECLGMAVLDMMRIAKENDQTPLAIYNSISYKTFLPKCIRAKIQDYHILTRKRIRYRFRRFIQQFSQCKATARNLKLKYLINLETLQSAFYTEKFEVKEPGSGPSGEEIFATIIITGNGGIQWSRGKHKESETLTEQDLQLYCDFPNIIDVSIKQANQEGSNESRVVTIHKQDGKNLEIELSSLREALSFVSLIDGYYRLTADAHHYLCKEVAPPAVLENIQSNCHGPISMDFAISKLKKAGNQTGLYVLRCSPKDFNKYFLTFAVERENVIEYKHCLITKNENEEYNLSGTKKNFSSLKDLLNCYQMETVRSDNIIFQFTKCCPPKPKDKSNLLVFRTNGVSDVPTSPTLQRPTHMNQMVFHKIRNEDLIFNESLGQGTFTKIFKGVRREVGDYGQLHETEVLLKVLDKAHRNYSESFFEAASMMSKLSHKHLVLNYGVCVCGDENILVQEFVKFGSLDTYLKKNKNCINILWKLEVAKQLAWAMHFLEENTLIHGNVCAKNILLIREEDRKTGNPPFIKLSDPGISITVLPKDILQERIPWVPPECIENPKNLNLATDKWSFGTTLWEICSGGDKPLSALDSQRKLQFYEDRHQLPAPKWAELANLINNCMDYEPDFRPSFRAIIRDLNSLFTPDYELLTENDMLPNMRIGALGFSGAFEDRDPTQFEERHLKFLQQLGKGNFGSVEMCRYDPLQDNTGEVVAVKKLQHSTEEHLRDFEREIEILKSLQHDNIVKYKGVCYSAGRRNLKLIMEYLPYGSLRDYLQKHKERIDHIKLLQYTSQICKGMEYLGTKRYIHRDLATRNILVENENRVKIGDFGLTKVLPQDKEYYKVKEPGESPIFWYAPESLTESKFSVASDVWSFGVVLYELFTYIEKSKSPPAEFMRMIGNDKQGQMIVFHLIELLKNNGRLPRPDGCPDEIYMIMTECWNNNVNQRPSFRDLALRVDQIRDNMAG
T1 sequence (Q9UM73 19-1620): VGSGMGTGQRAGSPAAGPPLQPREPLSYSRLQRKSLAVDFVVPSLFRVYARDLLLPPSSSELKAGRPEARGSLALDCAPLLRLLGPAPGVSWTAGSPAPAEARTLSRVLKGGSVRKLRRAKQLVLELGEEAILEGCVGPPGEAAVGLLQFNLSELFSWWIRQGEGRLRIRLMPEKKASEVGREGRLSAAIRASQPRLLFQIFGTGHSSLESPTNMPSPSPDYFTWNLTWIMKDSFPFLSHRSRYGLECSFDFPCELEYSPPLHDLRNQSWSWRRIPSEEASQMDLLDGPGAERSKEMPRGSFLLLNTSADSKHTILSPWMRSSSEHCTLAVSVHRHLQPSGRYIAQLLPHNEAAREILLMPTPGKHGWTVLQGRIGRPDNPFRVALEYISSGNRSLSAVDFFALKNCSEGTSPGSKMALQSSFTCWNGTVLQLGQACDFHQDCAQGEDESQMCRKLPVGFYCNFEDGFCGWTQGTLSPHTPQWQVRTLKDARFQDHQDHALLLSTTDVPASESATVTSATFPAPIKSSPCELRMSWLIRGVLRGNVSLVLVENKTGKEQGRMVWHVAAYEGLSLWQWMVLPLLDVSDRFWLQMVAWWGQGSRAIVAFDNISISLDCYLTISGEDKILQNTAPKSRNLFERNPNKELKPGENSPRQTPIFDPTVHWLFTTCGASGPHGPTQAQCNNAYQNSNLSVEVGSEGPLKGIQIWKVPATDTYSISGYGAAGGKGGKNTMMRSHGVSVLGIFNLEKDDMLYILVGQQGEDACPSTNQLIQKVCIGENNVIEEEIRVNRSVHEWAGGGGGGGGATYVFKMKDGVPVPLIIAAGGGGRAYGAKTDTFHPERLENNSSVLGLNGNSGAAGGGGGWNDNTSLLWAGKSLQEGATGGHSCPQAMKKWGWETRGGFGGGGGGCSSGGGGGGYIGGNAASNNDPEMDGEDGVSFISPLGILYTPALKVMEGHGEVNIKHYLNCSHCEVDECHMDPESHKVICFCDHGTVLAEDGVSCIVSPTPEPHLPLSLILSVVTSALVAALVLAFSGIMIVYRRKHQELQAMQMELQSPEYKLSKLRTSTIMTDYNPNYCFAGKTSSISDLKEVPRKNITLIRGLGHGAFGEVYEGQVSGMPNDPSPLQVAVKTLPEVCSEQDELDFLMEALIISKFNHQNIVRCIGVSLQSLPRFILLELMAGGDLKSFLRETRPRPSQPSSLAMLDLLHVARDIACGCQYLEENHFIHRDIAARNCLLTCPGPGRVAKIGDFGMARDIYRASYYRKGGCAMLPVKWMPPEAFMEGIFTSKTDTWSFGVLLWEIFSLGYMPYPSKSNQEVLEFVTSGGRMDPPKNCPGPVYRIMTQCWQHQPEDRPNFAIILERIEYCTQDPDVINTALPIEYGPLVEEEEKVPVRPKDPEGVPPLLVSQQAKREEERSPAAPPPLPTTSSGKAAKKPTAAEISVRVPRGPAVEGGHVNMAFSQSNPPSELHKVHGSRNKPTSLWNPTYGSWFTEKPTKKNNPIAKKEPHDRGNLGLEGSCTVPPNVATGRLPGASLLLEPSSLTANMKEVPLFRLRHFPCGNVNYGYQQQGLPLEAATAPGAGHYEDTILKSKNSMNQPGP

Row | SMILES | IC50 [1] [nM] | IC50 [2] [nM]
1 | c1ccc(-c2ccc3cnc(NCCN4CCOCC4)nn23)cc1 [Example 28, (2-Morpholin-4-yl-ethyl)-(7-phenyl-pyrrolo[2,1-f][1,2,4]triazin-2-yl)-amine] | > 10000 | 1000 to 10000
2 | c1ccc(-c2ccc3cnc(NCCCN4CCOCC4)nn23)cc1 [Example 29, (3-Morpholin-4-yl-propyl)-(7-phenyl-pyrrolo[2,1-f][1,2,4]triazin-2-yl)-amine] | > 10000 | 1000 to 10000
3 | COCCN1CCc2ccc(Nc3ncc4ccc(-c5ccccc5OC)n4n3)cc2CC1 [Example 30, [3-(2-Methoxy-ethyl)-2,3,4,5-tetrahydro-1H-benzo[d]azepin-7-yl]-[7-(2-methoxy-phenyl)-pyrrolo[2,1-f][1,2,4]triazin-2-yl]-amine] | < 100 | < 100
4 | COCCN1CCc2ccc(Nc3ncc4ccc(-c5ccccc5S(=O)(=O)N(C)C)n4n3)cc2CC1 [Example 31, 2-{2-[3-(2-Methoxy-ethyl)-2,3,4,5-tetrahydro-1H-benzo[d]azepin-7-ylamino]-pyrrolo[2,1-f][1,2,4]triazin-7-yl}-N,N-dimethyl-benzenesulfonamide] | 100 to 1000 | < 100
5 | COCCN1CCc2ccc(Nc3ncc4ccc(-c5ccccc5S(=O)(=O)N5CCCC5)n4n3)cc2CC1 [Example 32, [3-(2-Methoxy-ethyl)-2,3,4,5-tetrahydro-1H-benzo[d]azepin-7-yl]-{7-[2-(pyrrolidine-1-sulfonyl)-phenyl]-pyrrolo[2,1-f][1,2,4]triazin-2-yl}-amine] | 100 to 1000 | < 100
6 | COc1cc(N2CCN(C)CC2)ccc1Nc1ncc2ccc(-c3ccccc3OC)n2n1 [Example 33, [2-Methoxy-4-(4-methyl-piperazin-1-yl)-phenyl]-[7-(2-methoxy-phenyl)-pyrrolo[2,1-f][1,2,4]triazin-2-yl]-amine] | < 100 | < 100
7 | COc1cc(N2CCN(C)CC2)ccc1Nc1ncc2ccc(-c3cccnc3OC)n2n1 [Example 34, [2-Methoxy-4-(4-methyl-piperazin-1-yl)-phenyl]-[7-(2-methoxy-pyridin-3-yl)-pyrrolo[2,1-f][1,2,4]triazin-2-yl]-amine] | < 100 | < 100
8 | COc1cc(N2CCN(C)CC2)ccc1Nc1ncc2ccc(-c3ccccc3S(=O)(=O)N(C)C)n2n1 [Example 35, 2-{2-[2-Methoxy-4-(4-methyl-piperazin-1-yl)-phenylamino]-pyrrolo[2,1-f][1,2,4]triazin-7-yl}-N,N-dimethyl-benzenesulfonamide] | 100 to 1000 | 1000 to 10000
9 | NC(=O)c1ccccc1-c1ccc2cnc(Nc3ccc(N4CCOCC4)cc3)nn12 [Example 36, 2-[2-(4-Morpholin-4-yl-phenylamino)-pyrrolo[2,1-f][1,2,4]triazin-7-yl]-benzamide] | 1000 to 10000 | < 100
10 | N#Cc1ccc(-c2ccc3cnc(Nc4ccc(N5CCOCC5)cc4)nn23)cn1 [Example 37, 5-[2-(4-Morpholin-4-yl-phenylamino)-pyrrolo[2,1-f][1,2,4]triazin-7-yl]-pyridine-2-carbonitrile] | 1000 to 10000 | < 100
11 | N#Cc1cccc(-c2ccc3cnc(Nc4ccc(N5CCOCC5)cc4)nn23)c1 [Example 39, 3-[2-(4-Morpholin-4-yl-phenylamino)-pyrrolo[2,1-f][1,2,4]triazin-7-yl]-benzonitrile] | > 10000 | < 100
12 | CN1CCN(c2ccc(Nc3ncc4c(-c5ccccc5Cl)ccn4n3)cc2)CC1 [Example 40, [5-(2-Chloro-phenyl)-pyrrolo[2,1-f][1,2,4]triazin-2-yl]-[4-(4-methyl-piperazin-1-yl)-phenyl]-amine] | > 10000 | 1000 to 10000
13 | CN1CCN(c2ccc(Nc3ncc4c(-c5ccccc5)ccn4n3)cc2)CC1 [Example 41, [4-(4-Methyl-piperazin-1-yl)-phenyl]-(5-phenyl-pyrrolo[2,1-f][1,2,4]triazin-2-yl)-amine] | > 10000 | < 100
14 | COc1ccccc1-c1ccn2nc(Nc3ccc(N4CCN(C)CC4)cc3)ncc12 [Example 42, [5-(2-Methoxy-phenyl)-pyrrolo[2,1-f][1,2,4]triazin-2-yl]-[4-(4-methyl-piperazin-1-yl)-phenyl]-amine] | > 10000 | 100 to 1000
15 | CS(=O)(=O)c1cccc(-c2ccc3cnc(Nc4ccc(N5CCOCC5)cc4)nn23)c1 [Example 43, [7-(3-Methanesulfonyl-phenyl)-pyrrolo[2,1-f][1,2,4]triazin-2-yl]-(4-morpholin-4-yl-phenyl)-amine] | 100 to 1000 | < 100
16 | CC(C)(C)OC(=O)c1ccc(-c2ccc3cnc(Nc4ccc(N5CCOCC5)cc4)nn23)cc1 [Example 44, 4-[2-(4-Morpholin-4-yl-phenylamino)-pyrrolo[2,1-f][1,2,4]triazin-7-yl]-benzoic acid tert-butyl ester] | > 10000 | < 100

Row | SMILES | IC50 [1] [nM] | IC50 [2] [nM]
17 | O=C(O)c1ccc(-c2ccc3cnc(Nc4ccc(N5CCOCC5)cc4)nn23)cc1 [Example 45, 4-[2-(4-Morpholin-4-yl-phenylamino)-pyrrolo[2,1-f][1,2,4]triazin-7-yl]-benzoic acid] | > 10000 | < 100
18 | c1ccc(-c2ccc3cnc(Nc4ccc(N5CCOCC5)nc4)nn23)cc1 [Example 46, (6-Morpholin-4-yl-pyridin-3-yl)-(7-phenyl-pyrrolo[2,1-f][1,2,4]triazin-2-yl)-amine] | 1000 to 10000 | < 100
19 | COc1ccccc1-c1ccc2cnc(Nc3ccc(N4CCOCC4)nc3)nn12 [Example 47, [7-(2-Methoxy-phenyl)-pyrrolo[2,1-f][1,2,4]triazin-2-yl]-(6-morpholin-4-yl-pyridin-3-yl)-amine] | 100 to 1000 | < 100
20 | COCCN1CCc2cc(Nc3ncc4ccc(-c5ccccc5OC)n4n3)c(OC)cc2CC1 [Example 48, [8-Methoxy-3-(2-methoxy-ethyl)-2,3,4,5-tetrahydro-1H-benzo[d]azepin-7-yl]-[7-(2-methoxy-phenyl)-pyrrolo[2,1-f][1,2,4]triazin-2-yl]-amine] | < 100 | 100 to 1000
21 | Clc1cccc(-c2ccc3cnc(Nc4ccc(N5CCCCC5)cc4)nn23)c1 [Example 49, [7-(3-Chloro-phenyl)-pyrrolo[2,1-f][1,2,4]triazin-2-yl]-(4-piperidin-1-yl-phenyl)-amine] | > 10000 | < 100
22 | c1cc2cnc(Nc3ccc(N4CCOCC4)cc3)nn2c1 [Example 50, (4-Morpholin-4-yl-phenyl)-pyrrolo[2,1-f][1,2,4]triazin-2-yl-amine] | > 10000 | < 100
23 | N#Cc1ccc2cnc(Nc3ccc(N4CCOCC4)cc3)nn12 [Example 51, 2-(4-Morpholin-4-yl-phenylamino)-pyrrolo[2,1-f][1,2,4]triazine-7-carbonitrile] | > 10000 | < 100
24 | CN(C)CCNC(=O)c1ccc(-c2ccc3cnc(Nc4ccc(N5CCOCC5)cc4)nn23)cc1 [Example 52, N-(2-Dimethylamino-ethyl)-4-[2-(4-morpholin-4-yl-phenylamino)-pyrrolo[2,1-f][1,2,4]triazin-7-yl]-benzamide] | 100 to 1000 | < 100
25 | O=C(NCCN1CCCC1)c1ccc(-c2ccc3cnc(Nc4ccc(N5CCOCC5)cc4)nn23)cc1 [Example 53, 4-[2-(4-Morpholin-4-yl-phenylamino)-pyrrolo[2,1-f][1,2,4]triazin-7-yl]-N-(2-pyrrolidin-1-yl-ethyl)-benzamide] | 100 to 1000 | < 100
26 | O=C(NCCCN1CCCC1)c1ccc(-c2ccc3cnc(Nc4ccc(N5CCOCC5)cc4)nn23)cc1 [Example 54, 4-[2-(4-Morpholin-4-yl-phenylamino)-pyrrolo[2,1-f][1,2,4]triazin-7-yl]-N-(3-pyrrolidin-1-yl-propyl)-benzamide] | 100 to 1000 | < 100
27 | CNC(=O)c1ccc(-c2ccc3cnc(Nc4ccc(N5CCOCC5)cc4)nn23)cc1 [Example 55, N-Methyl-4-[2-(4-morpholin-4-yl-phenylamino)-pyrrolo[2,1-f][1,2,4]triazin-7-yl]-benzamide] | 1000 to 10000 | < 100
28 | O=C(NCCN1CCOCC1)c1ccc(-c2ccc3cnc(Nc4ccc(N5CCOCC5)cc4)nn23)cc1 [Example 56, N-(2-Morpholin-4-yl-ethyl)-4-[2-(4-morpholin-4-yl-phenylamino)-pyrrolo[2,1-f][1,2,4]triazin-7-yl]-benzamide] | 1000 to 10000 | < 100
29 | O=C(NCCCN1CCOCC1)c1ccc(-c2ccc3cnc(Nc4ccc(N5CCOCC5)cc4)nn23)cc1 [Example 57, 4-[2-(4-Morpholin-4-yl-phenylamino)-pyrrolo[2,1-f][1,2,4]triazin-7-yl]-N-(3-morpholin-4-yl-propyl)-benzamide] | 1000 to 10000 | < 100
30 | FC(F)(F)c1cc(-c2ccc3cnc(Nc4ccc(N5CCOCC5)cc4)nn23)ccc1Cl [Example 58, [7-(4-Chloro-3-trifluoromethyl-phenyl)-pyrrolo[2,1-f][1,2,4]triazin-2-yl]-(4-morpholin-4-yl-phenyl)-amine] | 1000 to 10000 | < 100
31 | CN1CCN(c2ccc(Nc3ncc4ccc(-c5ccc(S(C)(=O)=O)cc5)n4n3)cc2)CC1 [Example 59, [7-(4-Methanesulfonyl-phenyl)-pyrrolo[2,1-f][1,2,4]triazin-2-yl]-[4-(4-methyl-piperazin-1-yl)-phenyl]-amine] | 100 to 1000 | < 100
32 | CS(=O)(=O)c1ccc(-c2ccc3cnc(Nc4ccc(N5CCOCC5)nc4)nn23)cc1 [Example 60, [7-(4-Methanesulfonyl-phenyl)-pyrrolo[2,1-f][1,2,4]triazin-2-yl]-(6-morpholin-4-yl-pyridin-3-yl)-amine] | 1000 to 10000 | < 100
